# *1 amine or outer side, *2 acyl side, *3 side chain or, on linkers, in order; H or OH if unused. Where a SMILES comes first, the peptide text is derived from it. Bridges are numbered along the chain shown (N, C = ends). [ ]: non-standard residue; d: D form. The star is where a group is joined. hPhe(3,5-F2-4-CF3) = N[C@@H](CCc1cc(F)c(C(F)(F)F)c(F)c1)C(=O)O; NPrPhe(4-CF3) = CCCN[C@@H](Cc1ccc(C(F)(F)F)cc1)C(=O)O; X16 = O=C([C@@H](N[*:1])C1CC(F)(F)C1)[*:2]; NMeGly(cPent) = CN[C@H](C(=O)O)C1CCCC1; NMeD = CN[C@@H](CC(=O)O)C(=O)O; NMeL = CN[C@@H](CC(C)C)C(=O)O; Iva = CC[C@](C)(N)C(=O)O; Morpholide = C1CN(*)CCO1; Ac5c = NC1(C(=O)O)CCCC1; Aze = O=C(O)[C@@H]1CCN1; Sar = CNCC(=O)O
# Tests used:
# [1] = biological target: GDP-bound NRAS wild-type protein (Homo sapiens, UniProt P01111); test: Binding to NRAS by surface plasmon resonance (SPR), KD and KD ratio to KRAS; conditions: ratio of KD for GDP-bound NRAS wild-type protein to KD for KRAS
# In short: (§1)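 Each cycle, GDP-bound biotin-Avi RAS was captured (~100–300 RU), compound concentrations were injected low to high for 75 s each at 100 µL/min, then the chip was regenerated. Buffer: HBS pH 7.4, 10 mM MgCl2, 10 µM GDP, 1 mM DTT, 4% DMSO; 30°C. KD from a 1:1 binding model.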
# [2] = biological target: HRAS wild-type protein (Homo sapiens, UniProt P01112); test: Binding to HRAS by surface plasmon resonance (SPR), KD and KD ratio to KRAS; conditions: ratio of KD for HRAS wild-type protein to KD for KRAS
# In short: as §1
# [3] = tested on: human lung cancer strain NCI-H441; format: cell-based
# In short: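 Signal came from […] measured per well once the reagent was added. Beforehand, cells were cultured at 37°C and 5% carbon dioxide on a compound series serially diluted in dimethyl sulfoxide.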
# Sequence of HRAS wild-type protein (P01112 whole entry): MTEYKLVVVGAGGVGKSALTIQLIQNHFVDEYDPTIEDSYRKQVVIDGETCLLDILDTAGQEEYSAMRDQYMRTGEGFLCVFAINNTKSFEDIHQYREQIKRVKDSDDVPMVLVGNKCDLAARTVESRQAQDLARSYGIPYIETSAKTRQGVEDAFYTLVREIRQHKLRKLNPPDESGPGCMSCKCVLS
# Sequence of GDP-bound NRAS wild-type protein (P01111 whole entry): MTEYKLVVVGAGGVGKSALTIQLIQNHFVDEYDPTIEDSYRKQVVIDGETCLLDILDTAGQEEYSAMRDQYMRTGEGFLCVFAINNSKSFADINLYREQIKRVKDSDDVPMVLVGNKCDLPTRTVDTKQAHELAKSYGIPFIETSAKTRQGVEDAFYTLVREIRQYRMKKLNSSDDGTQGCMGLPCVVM
SMILES,NRAS /KRAS [1],HRAS /KRAS [2],IC50 [3]
"CCCN1C(=O)CN(C)C(=O)[C@@H]2CCN2C(=O)[C@H](C2CC(F)(F)C2)NC(=O)[C@H](CC(C)C)N(C)C(=O)C[C@@H](C(=O)N2CCOCC2)N(C)C(=O)[C@H](C2CCCC2)N(C)C(=O)C2(CCCC2)NC(=O)[C@@H]2CCCN2C(=O)[C@H](CCc2cc(F)c(C(F)(F)F)c(F)c2)NC(=O)CN(C)C(=O)[C@@H]1Cc1ccc(C(F)(F)F)cc1 [PP0786] ([NMeL][X16][Aze][Sar][NPrPhe(4-CF3)][Sar][hPhe(3,5-F2-4-CF3)]P[Ac5c][NMeGly(cPent)][NMeD]-Morpholide; lactam N-11)",B (a compound having 3 or more and less than 10 is denoted as B),B (a compound having 3 or more and less than 10 is denoted as B),44.8 nM
"CCCN1C(=O)[C@@H]2CCN2C(=O)CN(C)C(=O)[C@H](C2CC(F)(F)C2)NC(=O)[C@H](CC(C)C)N(C)C(=O)C[C@@H](C(=O)N2CCOCC2)N(C)C(=O)[C@H](C2CCCC2)N(C)C(=O)C2(CCCC2)NC(=O)[C@@H]2CCCN2C(=O)[C@H](CCc2cc(F)c(C(F)(F)F)c(F)c2)NC(=O)CN(C)C(=O)[C@@H]1Cc1ccc(C(F)(F)F)cc1 [PP0787] ([NMeL][X16][Sar][Aze][NPrPhe(4-CF3)][Sar][hPhe(3,5-F2-4-CF3)]P[Ac5c][NMeGly(cPent)][NMeD]-Morpholide; lactam N-11)",C (A compound having a KD ratio of 0.1 or more and less than 3 is denoted as C),B (a compound having 3 or more and less than 10 is denoted as B),38.3 nM
"CCCN1C(=O)CN(C)C(=O)CN(C)C(=O)[C@H]([C@@H](C)CC)NC(=O)[C@H](CC(C)C)N(C)C(=O)C[C@@H](C(=O)N(C)C)N(C)C(=O)[C@H](C2CCCC2)N(C)C(=O)C2(CCCC2)NC(=O)[C@@H]2CCCN2C(=O)[C@H](CCc2cc(F)c(C(F)(F)F)c(F)c2)NC(=O)CN(C)C(=O)[C@@H]1Cc1ccc(C(F)(F)F)cc1 [PP0788] ([NMeL]I[Sar][Sar][NPrPhe(4-CF3)][Sar][hPhe(3,5-F2-4-CF3)]P[Ac5c][NMeGly(cPent)][NMeD]-NMe2; lactam N-11)",B (a compound having 3 or more and less than 10 is denoted as B),C (A compound having a KD ratio of 0.1 or more and less than 3 is denoted as C),7.1 nM
"CCCN1C(=O)[C@@H]2CCN2C(=O)CN(C)C(=O)[C@H]([C@@H](C)CC)NC(=O)[C@H](CC(C)C)N(C)C(=O)C[C@@H](C(=O)N2CCOCC2)N(C)C(=O)[C@H](C2CCCC2)N(C)C(=O)C2(CCCC2)NC(=O)[C@@H]2CCCN2C(=O)[C@H](CCc2cc(F)c(C(F)(F)F)c(F)c2)NC(=O)CN(C)C(=O)[C@@H]1Cc1ccc(C(F)(F)F)cc1 [PP0789] ([NMeL]I[Sar][Aze][NPrPhe(4-CF3)][Sar][hPhe(3,5-F2-4-CF3)]P[Ac5c][NMeGly(cPent)][NMeD]-Morpholide; lactam N-11)",C (A compound having a KD ratio of 0.1 or more and less than 3 is denoted as C),B (a compound having 3 or more and less than 10 is denoted as B),12.5 nM
"CCCN1C(=O)[C@@H]2CCN2C(=O)CN(C)C(=O)[C@H]([C@@H](C)CC)NC(=O)[C@H](CC(C)C)N(C)C(=O)C[C@@H](C(=O)N2CCOCC2)N(C)C(=O)[C@H](C2CCCC2)N(C)C(=O)[C@](C)(CC)NC(=O)[C@@H]2CCCN2C(=O)[C@H](CCc2cc(F)c(C(F)(F)F)c(F)c2)NC(=O)CN(C)C(=O)[C@@H]1Cc1ccc(C(F)(F)F)cc1 [PP0790] ([NMeL]I[Sar][Aze][NPrPhe(4-CF3)][Sar][hPhe(3,5-F2-4-CF3)]P[Iva][NMeGly(cPent)][NMeD]-Morpholide; lactam N-11)",C (A compound having a KD ratio of 0.1 or more and less than 3 is denoted as C),B (a compound having 3 or more and less than 10 is denoted as B),28.8 nM

# Reference: patent publication EP4603105A1, “PHARMACEUTICAL COMPOSITION CONTAINING CYCLIC COMPOUND HAVING SELECTIVE KRAS INHIBITORY EFFECT AGAINST HRAS AND NRAS” (CHUGAI SEIYAKU KABUSHIKI KAISHA, priority 2022, dated 2024)
